These are literature values, as cited in patent US11103580B2, “Methods and systems for treating cell proliferation disorders” (Immunolight, LLC, priority 2007, dated 2021).

Read-outs that look alike come from different tables or passages of the source.

Data set [1] concerns rapidly dividing tissue. As to conditions: in vivo.
The conditions of data set [2]: for Length of photosensitization: Table 3, known photosensitizers.
Data set [3] concerns tumors. The note with it: in vivo.
The test system of data set [4] is leukocytes. The note with it: administered orally to a patient.
The conditions of data set [5]: in excess.

As to Cobalt-57-cyanocobalamin, the “uptake in rapidly dividing tissue” value in data set [1] is “increased uptake”.

In the case of `CC(=O)[O-].CC(=O)[O-].CCc1c(CC)c2cc3nc(cnc4cc(OCCOCCOCCOC)c(OCCOCCOCCOC)cc4ncc4nc(cc1[n-]2)C(CCCO)=C4C)C(C)=C3CCCO.O.[Lu+3]` [Lutetium texaphryin, Motexafin lutetium], the Length of photosensitization in data set [2] is 24 to 48 h. For the same molecule, the “duration of skin photosensitivity” value in data set [2] (clinical use) was 24 to 48 h. For the same molecule, the “selectivity for tumors compared to normal tissues” value in data set [3] was “one of the greatest reported selectivities for tumors”. Turning to `COc1c2occc2cc2ccc(=O)oc12` [Compound 8-MOP, 8-methoxypsoralen], in data set [4], the “inducing an apoptosis of leukocytes” value was “effective at inducing an apoptosis of leukocytes” and the safety entry is given as “safe”.

Take Vitamin B12: the water solubility entry is “water soluble”. In data set [5], the excretion entry is given as “excreted by gloinerular filtration”. As to `Oc1cccc(-c2c3nc(c(-c4cccc(O)c4)c4ccc([nH]4)c(-c4cccc(O)c4)c4nc(c(-c5cccc(O)c5)c5ccc2[nH]5)CC4)C=C3)c1` [Foscan, Tetra (m-hydroxyphenyl) chlorin], the Length of photosensitization in data set [2] is 2 weeks. In addition, the “duration of skin photosensitivity” value in data set [2] (approximately) is reported as “approximately 2 weeks”. Regarding `C/C1=C2/[N-][C@H]([C@H](CC(N)=O)[C@@]2(C)CCC(=O)NC[C@@H](C)OP(=O)([O-])O[C@H]2[C@@H](O)[C@@H](n3cnc4cc(C)c(C)cc43)O[C@@H]2CO)[C@]2(C)N=C(/C(C)=C3N=C(/C=C4N=C1[C@@H](CCC(N)=O)C\4(C)C)[C@@H](CCC(N)=O)[C@]\3(C)CC(N)=O)[C@@H](CCC(N)=O)[C@]2(C)CC(N)=O.[CH3-].[Co+3]` [methylcobalamin], the “uptake in rapidly dividing tissue” value in data set [1] was “increased uptake”.
